Data taken from BindingDB's records for doi:10.1021/bi401077f (Weill Cornell Medical College, 2013).
pIC50, pKi: −log10 of the molar value.

Assays:
[1] = target: T1, Dihydrolipoyl dehydrogenase (Mycobacterium tuberculosis (strain CDC 1551 / Oshkosh), UniProt P9WHH8); assay: Enzyme Assays
T1 sequence (P9WHH8 whole entry): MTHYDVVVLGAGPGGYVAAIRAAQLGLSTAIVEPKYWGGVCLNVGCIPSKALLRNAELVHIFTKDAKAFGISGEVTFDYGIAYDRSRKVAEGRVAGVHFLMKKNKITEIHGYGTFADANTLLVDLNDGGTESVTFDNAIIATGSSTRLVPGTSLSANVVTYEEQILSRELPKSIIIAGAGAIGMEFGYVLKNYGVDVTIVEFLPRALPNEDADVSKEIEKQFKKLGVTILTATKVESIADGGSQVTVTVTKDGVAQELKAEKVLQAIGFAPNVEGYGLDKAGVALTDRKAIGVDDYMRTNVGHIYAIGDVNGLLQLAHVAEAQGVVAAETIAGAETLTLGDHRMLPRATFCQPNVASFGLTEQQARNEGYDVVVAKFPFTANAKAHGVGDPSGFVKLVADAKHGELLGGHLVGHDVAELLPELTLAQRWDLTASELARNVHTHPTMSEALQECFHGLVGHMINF

[2] = target: T2, Dihydrolipoyl dehydrogenase (Mycobacterium tuberculosis (strain ATCC 25618 / H37Rv), UniProt P9WHH9); assay: Enzyme Assays
T2 sequence (P9WHH9 whole entry): T1 sequence (P9WHH8 whole entry)

SMILES | pIC50 [1] | pKi [2] | pKi [1]
NC(=O)C(=O)NCc1cccnc1 [4031-0653] | 5.22 | – | –
CC(C)(C)NC(=O)C(=O)NCc1cccnc1 [4031-1995] | 4.00 | – | –
O=C(Nc1ccc(Br)cc1)C1CCC(S(=O)(=O)c2cccnc2)CC1 (stereo not drawn) [C324-0095] | < 4.00 | – | –
CCN(Cc1ccccc1)C(=O)CN(C)S(=O)(=O)c1cc(Br)cnc1N [E114-0951] | 4.90 | – | –
CN1CCN(S(=O)(=O)c2cc(Br)cnc2N)CC1 [E138-2099] | < 4.00 | – | –
CCCCNS(=O)(=O)c1cc(Br)cnc1N [E138-2195] | < 4.00 | – | –
CN(Cc1ccccc1)C(=O)CN(C)S(=O)(=O)c1cc(Br)cnc1N [E144-0828] | 4.47 | – | –
CCCCN(C)C(=O)CCNS(=O)(=O)c1cc(Br)cnc1N [E199-0112] | < 4.00 | – | –
Nc1ncc(Br)cc1S(=O)(=O)NCCC(=O)Nc1cccc(Cl)c1 [K906-3123] | < 4.00 | – | –
Cc1cc(NC(=O)CN(C)S(=O)(=O)c2cc(Br)cnc2N)ccc1Br [K906-3584] | > 7.00 | – | –
CC1CCCCC1NC(=O)CN(C)S(=O)(=O)c1cccc2cccnc12 (stereo not drawn) [N-(2-methylcyclohexyl)-2-[methyl(quinolin-8-ylsulfonyl)amino]acetamide] | < 4.00 | – | –
CN(CC(=O)Nc1ccc(F)c(Cl)c1)S(=O)(=O)c1cc(Br)cnc1N [SL418] | – | 6.48 | 6.84
